Consider 1 substance from patent US10226509B2, “Lymphangiogenesis inhibitors for cancer and for graft survival” (TUFTS UNIVERSITY, priority 2014, dated 2019).

Test [1] has as its system VEGFR-3. The test is described as follows: Affinity precipitation assay, VEGFR-3. The test is classed as binding, human. Conditions: galectin-conjugated agarose beads, LEC lysates. How it is done: Five mg of plant lectins (Vector Labs) and galectins were conjugated to 330 mg of Pierce® NHS-activated agarose dry resin in accordance with the manufacturer's instructions (Thermo Scientific). Primary LECs (Lonza) were lysed in Triton lysis buffer (20 mM Tris-HCl, pH 7.4; 150 mM NaCl; 0.5% Triton X-100 with protease inhibitor cocktail). LEC lysates (250 μg in 500 μL lysis buffer supplemented with 10 mM MgCl2) were incubated with 40 μL (50% slurry) of agarose-conjugated lectins (4° C., overnight). Beads were pelleted by centrifugation at 3000 rpm for 1 min. Non-specific binding proteins were removed by washing the beads with Triton lysis buffer once and PBS twice. Supernatants were discarded; bound proteins were eluted by boiling the beads with 20 μL of 2× Laemmli sample buffer for 7 min, and examined by western blotting.
Next, a series of examples were performed to determine whether VEGF-C-induced lymphangiogenesis is dependent on Gal-8. To determine whether VEGFR-3 is a Gal-8-binding protein, LEC lysates were incubated with Gal-8-conjugated agarose beads in the presence or absence of 0.1 M of lactose (an inhibiting sugar) or sucrose (a non-inhibiting sugar). Bound proteins were examined and were compared to total cell lysates (input) by western blot using anti-VEGFR-3 antibody. Three forms of VEGFR-3 (125 kDa, 175 kDa and 195 kDa) were detected in total cell lysates (FIG. 5A) (Bando, H., et al. 2004. Int J Cancer 111:184-191.). […] Having shown that Gal-8 binds to VEGFR-3 in LECs and that the carbohydrate-binding activity of Gal-8 is required for the synergistic effect of Gal-8 on VEGF-C-induced LEC sprouting, it was of interest to determine whether VEGFR-3 bears 3′-sialylated glycans.

Test [2] addresses T1, VEGF-C (Homo sapiens, UniProt P49767).
T1 construct: Primary LECs were incubated with agarose beads (control), and galectin-conjugated agarose beads at 4° C. overnight; endogenous in cells; host or cells: primary lymphatic endothelial cells (LECs)
T1 sequence (P49767 112-227): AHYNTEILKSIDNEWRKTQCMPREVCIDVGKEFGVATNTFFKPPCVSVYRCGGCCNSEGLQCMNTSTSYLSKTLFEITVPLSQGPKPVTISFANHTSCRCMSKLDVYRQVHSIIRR
In words: Affinity precipitation assay, VEGF-C. Type of test: binding. Particulars: galectin-conjugated agarose beads.

Test [3] deals with VEGFR-3. The test is described as follows: Cell surface expression of VEGFR-3 by flow cytometry. The test is classed as cell-based, human. Particulars: Gal-8 0.2 μM or VEGF-C 50 ng/ml. The procedure: Primary LECs were serum-starved overnight in basal EBM-2 medium. The cells were incubated with or without VEGF-C (50 ng/ml, PeproTech) or Gal-8 (0.2 μM) in serum-free EBM-2 medium for 10 and 30 min. At the end of the incubation period, cells were lifted with StemPro® Accutase® cell dissociation reagent (Invitrogen), washed with PBS and fixed with 4% paraformaldehyde/PBS on ice for 10 min, and were then stained using rat anti-human PDPN (1:500, BioLegend) and mouse anti-human VEGFR-3 (clone 9D9F9) (1:100, BioLegend) primary antibodies in cell staining buffer (BioLegend, 45 min on ice) and Alexa Fluor® 488 donkey anti-rat and Alexa Fluor® 647 anti-mouse secondary antibodies (1:1000, Invitrogen, 30 min on ice). For negative control, the primary antibodies were omitted. The stained cells were fixed with 2% paraformaldehyde/PBS, analyzed with BD FACSCalibur, and the mean fluorescence intensity of VEGFR-3 and PDPN were quantified with the FlowJo software (version 9.5.2).
A general note: Flow cytometry measures light scatter and fluorescence of single cells or particles in a stream.

In test [4] the test system is LEC plasma membrane. The test is described as follows: Immunocytochemistry / confocal microscopy of receptor clustering on LECs. The test is classed as cell-based, human. The procedure: […] Cells were blocked with Image-iT® signal enhancer (30 min, 25° C., Invitrogen) and incubated with primary antibodies (rat anti-human PDPN, 1:300, BioLegend; mouse anti-human VEGFR-3, 9D9F9, 1:100, BioLegend; rabbit anti-Gal-8, H-80, 1:100, Santa Cruz Biotechnology) in 2% BSA/PBS at 4° C. overnight. The cells were then washed with 2% BSA/PBS three times and incubated with appropriate secondary antibodies (Alexa Fluor® 488 anti-mouse, 1:200, Invitrogen; Alexa Fluor® 568 anti-rabbit, 1:200, Invitrogen; Alexa Fluor 647® anti-rat, 1:300, Jackson ImmunoResearch) at 25° C. for 1 hr. Cells were washed with PBS, slides were mounted with ProLong Gold antifade reagent with DAPI (Invitrogen) and were examined with the Leica TCS SPE imaging system (Leica).
Since galectin-glycan lattices segregate the cell surface receptors into discrete domains to initiate cell signaling (Lajoie, P., et al. 2009. J Cell Biol 185:381-385), assays were performed to determine whether Gal-8 clusters PDPN and VEGFR-3 on LEC plasma membrane. LECs were treated with Gal-8 for 15 minutes, fixed, stained with anti-PDPN, VEGFR-3 and Gal-8 antibodies, and examined by confocal microscopy. In control cells, which were incubated with buffer only, both PDPN and VEGFR-3 were homogenously distributed all over the LEC and in cell borders; endogenous Gal-8 was mainly distributed in cytosol (FIG. 9A-FIG. 9D). […]

Consider “Gal-8: recombinant galectin-8, tandem-repeat type galectin with two different CRDs”, for which the “binding to VEGFR-3 (in words)” value in test [1] is “interacted with 125 and 195 kDa VEGFR-3 and not with 175 kDa VEGFR-3”. The “binding to VEGF-C (in words)” value in test [2] is recorded as “does not interact with VEGF-C”. Besides, in test [3], the “decrease of cell surface expression of VEGFR-3” value is recorded as “about 10%”. Also, the “distribution of PDPN and VEGFR-3 on LECs” value in test [4] (Gal-8 for 15 minutes) was “caused dramatic redistribution and clustering of PDPN and VEGFR-3 on LEC plasma membrane”. For the same substance, the “distribution of PDPN and integrin β1 on LECs” value in test [4] (galectin-8 for 15 minutes, no permeabilization) is “caused dramatic redistribution and clustering of PDPN and integrin β1 on LEC plasma membrane”.
